Values quoted from earlier work as cited in patent publication US20230000079A1, “COMBINATION COMPRISING A TRIKETONE HERBICIDE AND A DIPHENYLETHER HERBICIDE, AND A METHOD FOR MAKING AND USING THE COMBINATION” (Generic Crop Science LLC, priority 2021, published 2023).
Converted amounts (≈) assume the structure as drawn.

SMILES | water solubility (20° C.) | solubility in most organic solvents | solubility in water
CS(=O)(=O)c1ccc(C(=O)C2C(=O)CCCC2=O)c([N+](=O)[O-])c1 [Mesotrione, 2-[4-(methylsulfonyl)-2-nitrobenzoyl]cyclohexane-1,3-dione] | 1,500 mg/L | – | –
CCOc1cc(Oc2ccc(C(F)(F)F)cc2Cl)ccc1[N+](=O)[O-] [Oxyfluorfen, 2-chloro-4-(trifluoromethyl)phenyl 3-ethoxy-4-nitrophenyl ether] | – | highly soluble | 0.1 µg/mL (≈ 0.276 µM)
